Counter-ions that a name gives are not always drawn.
Experiments:
GABAA receptors = test: Single-unit recordings in contralateral VLO during 10 Hz thalamocortical stimulation before and after micro-infusion of BMI; assay type: in vivo, Sprague-Dawley rats
Procedure: It was next hypothesized that decreases in cortical activity reflect direct GABA-mediated inhibition. The dependence of this response on downstream GABA release was tested by comparing evoked changes in firing rate before and after micro-infusion of bicuculline methiodide (BMI). […] Single-unit recordings were performed in cVLO, where negative fMRI signals were observed during 10 Hz thalamocortical stimulation (FIG. 5A). To ensure that any changes associated with BMI infusion were due to its pharmacological effect, infusions with sterile saline were first performed. To inject both BMI and saline, a pair of cannulas was attached to the recording electrode directly above the electrical contacts (FIG. 5B).
(§1) In vivo electrophysiology was performed to directly measure the neuronal activity of various brain regions during thalamocortical stimulation. As with imaging, anesthesia was maintained with a mixture of 02 (35%), N20 (65%), and −1.5% isoflurane. Throughout the procedure, body temperature was maintained at 37° C. using a thermoresistive heating pad (FHC, Inc., ME, USA). After securing the animal within a stereotactic frame, a 16-channel microelectrode array (NeuroNexus Technologies, MI, USA; A1×16 standard model linear electrode array) was inserted at the desired recording site. For recordings at the site of stimulation and zona incerta, an optical fiber glued to the electrode tip was used to deliver light. Remote recordings were performed at the following coordinates, averaged across animals: contralateral VLO (+4.68 mm AP, −1.90 mm ML, −4.90 mm DV), ipsilateral motor cortex (+3.24 mm AP, +2.43 mm ML, −3.00 mm DV), ipsilateral reticular nucleus (−1.86 mm AP, +2.20 mm ML, −6.93 mm DV), contralateral reticular nucleus (−1.92 mm AP, −2.10 mm ML, −7.17 mm DV), and ipsilateral zona incerta (−4.00 mm AP, +3.10 mm ML, −7.13 mm DV). Light was delivered to the fiber-optic implant at VLO via a 473 nm laser source calibrated to 5 mW power delivery. In one animal, a higher power level was used (no more than −2×) to account for a fiber implanted in a relatively dorsal position in VLO. For the optrode positioned in zona incerta, a […] diameter optical fiber was used to deliver continuous light from a 589 nm laser source (LaserGlow Technologies) calibrated to 5 mW at the implanted fiber's tip. Recordings were performed for 20 s without stimulation, followed by repeated stimulation cycles (20 s on, 40 s off) at 10 or 40 Hz with a 30% duty cycle. To assess the role of zona incerta, 10 Hz stimulation trials were interleaved with 30 s periods of simultaneous eNpHR activation beginning 5 s prior to 10 Hz stimulation (FIG. 7B).
(§2) Pharmacological infusions were performed during in vivo electrophysiology (same procedure as described above) with bicuculline methiodide (BMI; 0.6 mg/ml; Sigma-Aldrich #14343), lidocaine hydrochloride (2%; Fresenius Kabi, IL, USA; #491507), or sterile saline as a control. Solutions were delivered at a rate of 250 nL/min via two polyethylene cannulas (0.011/0.024″ ID/OD; A-M Systems, WA, USA)—one for saline and one for the active pharmacological agent—glued to the tip of a recording electrode, directly above the topmost recording contact. Cannula tips were beveled to ensure that injected solutions were released in the direction of the electrode.
(§3) Infusions of saline and BMI (500 nL) were performed in the contralateral VLO while recording directly below the site of infusion (FIG. 5B). For each solution, twenty 10 Hz stimulation/recording trials were performed before infusion onset, and twenty more trials were performed immediately after infusion. Saline was delivered first, followed by BMI. To assess the role of zona incerta, saline and lidocaine (500-1000 nL) were delivered to the ipsilateral zona incerta while recording in the contralateral VLO. […]

zona incerta = test: Single-unit recordings in contralateral VLO during 10 Hz thalamocortical stimulation after lidocaine infusion in zona incerta; assay type: in vivo, Sprague-Dawley rats
Procedure: ZI activity was first inactivated via incertal infusions of the sodium channel blocker lidocaine hydrochloride (FIG. 6A and FIGS. 14A-14B). […] In contrast, only 72% of units were inhibited during 10 Hz stimulation after inactivation of zona incerta with lidocaine (FIG. 6B).
as §1, §2, §3

[1] = cVLO baseline (pre-stimulation) firing rate

Compound	stimulus-evoked change in firing rate of a representative cVLO unit (GABAA receptors; 10 Hz stimulation after BMI infusion, p=0.63)	effect on stimulus-evoked inhibition in cVLO (GABAA receptors; 10 Hz thalamocortical stimulation, after BMI infusion)	time course of the reduction in stimulus-evoked inhibition (GABAA receptors; after BMI infusion, twenty 10 Hz trials)	units whose baseline firing rate decreased following BMI infusion (GABAA receptors; [1])	units whose baseline firing rate increased following BMI infusion (GABAA receptors; [1])	recorded units not modulated by stimulation after BMI infusion (GABAA receptors; cVLO units, 10 Hz thalamocortical stimulation, after 500 nL BMI (0.6 mg/ml) infusion in cVLO, 49 units, 2 animals, 20 trials per condition)	recorded units exhibiting a significant increase in firing rate during stimulation after BMI infusion (GABAA receptors; cVLO units, 10 Hz thalamocortical stimulation, after BMI infusion)	average baseline firing rate across all units after BMI infusion (GABAA receptors; cVLO, p=0.66)	stimulus-evoked change in firing rate of a representative cVLO unit (zona incerta; 10 Hz stimulation after lidocaine infusion, p=0.31)	time course of the reduction in evoked inhibition (zona incerta; after lidocaine infusion in zona incerta, twenty 10 Hz trials)	units inhibited during 10 Hz stimulation after inactivation of zona incerta (zona incerta; cVLO units, lidocaine (2%, 500-1000 nL) infused in ipsilateral zona incerta, N=62 units, 20 trials per condition)	stimulus-evoked changes in firing rate versus baseline and post-saline values (zona incerta; cVLO, post-hoc tests, p=9.6×10^−10 and 3.0×10^−7)	effect on remote cortical inhibition driven by 10 Hz stimulation in a subset of recorded units (zona incerta; incertal infusion, representative cVLO unit)
C[N+]1(C)CCc2cc3c(cc2[C@H]1[C@@H]1OC(=O)c2c1ccc1c2OCO1)OCO3.[I-] [BMI, bicuculline methiodide]	no longer causes a significant change in firing rate	completely eliminated the stimulus-evoked inhibition	took immediate effect after BMI infusion and continued throughout the following twenty trials	18%	27%	96%	4%	not significantly different					
CCN(CC)CC(=O)Nc1c(C)cccc1C [lidocaine, lidocaine hydrochloride]									no longer exhibits a significant change in firing rate	took immediate effect after lidocaine infusion and persisted throughout the following twenty trials	72%	different than both baseline and post-saline values	completely eliminated the remote cortical inhibition
